Experimental data reported in article PMC2742562 (ACS chemical biology, 2009).

Biological target: glucose/galactose binding protein (GGBP) (Escherichia coli, UniProt P0AEE5)
Test: […] galactose competition binding assay

Sequence of glucose/galactose binding protein (GGBP) (P0AEE5 24-332 limits assumed): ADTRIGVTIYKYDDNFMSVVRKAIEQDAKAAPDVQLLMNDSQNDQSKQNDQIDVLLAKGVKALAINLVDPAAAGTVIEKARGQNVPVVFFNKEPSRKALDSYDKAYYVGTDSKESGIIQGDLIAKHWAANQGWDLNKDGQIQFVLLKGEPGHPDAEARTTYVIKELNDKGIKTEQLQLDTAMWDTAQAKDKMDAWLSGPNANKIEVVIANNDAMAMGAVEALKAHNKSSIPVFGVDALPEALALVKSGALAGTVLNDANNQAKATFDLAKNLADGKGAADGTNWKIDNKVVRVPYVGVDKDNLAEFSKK

SMILES: OC[C@H]1O[C@@H](OCCO[C@H]2[C@H](O)[C@@H](CO)OC(O)[C@@H]2O)[C@H](O)[C@@H](O)[C@@H]1O (stereo partly drawn) [DWI, 3-O-(2'-beta-D-glucopyanosyloxyethyl)-D-glucose]
- Ki: 27 ± 7 µM
